T/C data for 25 compounds are collected here from PubChem BioAssay AID330 (DTP/NCI, 2004).

This assay concerns P388 leukemia ip, CD2F1 mice, survival T/C. The assay is described as follows: NCI In Vivo Anticancer Drug Screen. Data for tumor model P388 Leukemia (intraperitoneal) in CD2F1 (CDF1) mice. The following applies: endpoint: median survival time, higher = longer survival. In a few lines:
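Mice carrying the transplanted tumor received test compound or vehicle. Survival was recorded in each group, and the value is the treated-group measurement divided by that of the vehicle-treated control group.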

[1] abbreviates: dose: 50.0 mg/kg/injection, schedule: Q01DX009 (ip), vehicle: Klucel (hydroxypropylcellulose) (HPC).
Where [2] appears, read: dose: 100.0 mg/kg/injection, schedule: Q01DX009 (ip), vehicle: Klucel (hydroxypropylcellulose) (HPC).
The mark [3] stands for this setting: dose: 200.0 mg/kg/injection, schedule: Q01DX009 (ip), vehicle: Klucel (hydroxypropylcellulose) (HPC).
Where [4] appears, read: dose: 100.0 mg/kg/injection, schedule: Q01DX001 (ip), vehicle: Klucel (hydroxypropylcellulose) (HPC).
[5] abbreviates: dose: 200.0 mg/kg/injection, schedule: Q01DX001 (ip), vehicle: Klucel (hydroxypropylcellulose) (HPC).
Where [6] appears, read: dose: 60.0 mg/kg/injection, schedule: Q01DX005 (ip), vehicle: saline with Tween-80.
[7] abbreviates: dose: 120.0 mg/kg/injection, schedule: Q01DX005 (ip), vehicle: saline with Tween-80.
The mark [8] stands for this setting: dose: 240.0 mg/kg/injection, schedule: Q01DX005 (ip), vehicle: saline with Tween-80.
The mark [9] stands for this setting: dose: 25.0 mg/kg/injection, schedule: Q01DX009 (ip), vehicle: saline.
Where [10] appears, read: dose: 50.0 mg/kg/injection, schedule: Q01DX009 (ip), vehicle: saline.
Setting [11] is: dose: 50.0 mg/kg/injection, schedule: Q01DX009 (ip), vehicle: saline with Tween-80.
[12] abbreviates: dose: 100.0 mg/kg/injection, schedule: Q01DX009 (ip), vehicle: saline with Tween-80.
Where [13] appears, read: dose: 200.0 mg/kg/injection, schedule: Q01DX009 (ip), vehicle: saline with Tween-80.
Where [14] appears, read: dose: 25.0 mg/kg/injection, schedule: Q01DX009 (ip), vehicle: saline with Tween-80.
Setting [15] is: dose: 50.0 mg/kg/injection, schedule: Q04DX003 (ip), vehicle: saline with Tween-80.
Where [16] appears, read: dose: 100.0 mg/kg/injection, schedule: Q04DX003 (ip), vehicle: saline with Tween-80.

Molecules are shown by their SMILES. Values joined by “and” are separate entries in the source; they are usually repeats but may differ in a detail not shown here. Identical values can stand only once. Toxic doses and inconclusive results are not listed.

Regarding `NC(=O)CCCSC1=CC(=O)c2ccccc2C1=O`, the T/C is, setting by setting: (dose: 3.12 mg/kg/injection, schedule: Q04DX002 (ip), vehicle: saline with Tween-80) 104 % of control; (dose: 6.25 mg/kg/injection, schedule: Q04DX002 (ip), vehicle: saline with Tween-80) 101 % of control; (dose: 12.5 mg/kg/injection, schedule: Q04DX002 (ip), vehicle: saline with Tween-80) 111 % of control and 114 % of control.

Regarding `COc1ccc2cc1Oc1ccc(cc1)CC1c3cc(c(OC)cc3CCN1C)Oc1c(O)c(OC)cc3c1C(C2)N(C)CC3` (stereo not drawn), the T/C is, setting by setting: (dose: 15.0 mg/kg/injection, schedule: Q01DX009 (ip), vehicle: Klucel (hydroxypropylcellulose) (HPC)) 95 % of control; (dose: 30.0 mg/kg/injection, schedule: Q01DX009 (ip), vehicle: Klucel (hydroxypropylcellulose) (HPC)) 93 % of control; (dose: 60.0 mg/kg/injection, schedule: Q01DX009 (ip), vehicle: Klucel (hydroxypropylcellulose) (HPC)) 97 % of control.

As for `O=C(Nc1nc2ccc(Cl)cc2[nH]1)c1ccccc1O`, the T/C is 94 % of control (dose: 50.0 mg/kg/injection, schedule: Q01DX005 (ip), vehicle: saline with Tween-80); 98 % of control (dose: 100.0 mg/kg/injection, schedule: Q01DX005 (ip), vehicle: saline with Tween-80); 101 % of control (dose: 200.0 mg/kg/injection, schedule: Q01DX005 (ip), vehicle: saline with Tween-80).

On to `CCCCN(CCCC)C1/C(=N\O)C2CC1C1CC=CC21` (stereo not drawn), for which the T/C was 95 % of control (dose: 60.0 mg/kg/injection, schedule: Q01DX005 (ip), vehicle: saline + Tween-80 + alcohol); 94 % of control (dose: 120.0 mg/kg/injection, schedule: Q01DX005 (ip), vehicle: saline + Tween-80 + alcohol); 94 % of control (dose: 240.0 mg/kg/injection, schedule: Q01DX005 (ip), vehicle: saline + Tween-80 + alcohol).

As for `Cc1cc(=O)n(C)c2ccc([N+](=O)[O-])cc12`, the T/C by setting is: under setting [1], 106 % of control; under setting [2], 108 % of control; under setting [3], 108 % of control.

For `CC(=O)OC1CCC2C3CCC4=CC(=O)C(C(O)(C(F)(F)F)C(F)(F)F)CC4(C)C3CCC12C` (stereo not drawn), the T/C is, setting by setting: (dose: 100.0 mg/kg/injection, schedule: Q01DX001 (sc), vehicle: steriod suspending solution) 100 % of control; (dose: 200.0 mg/kg/injection, schedule: Q01DX001 (sc), vehicle: steriod suspending solution) 100 % of control; (dose: 400.0 mg/kg/injection, schedule: Q01DX001 (sc), vehicle: steriod suspending solution) 104 % of control.

`COc1cc(OC)cc(C2(C(O)C3OC(C)(C)OC3C)SCCCS2)c1` (stereo not drawn): the T/C by setting is: under setting [4], 103 % of control; under setting [5], 99 % of control; (dose: 400.0 mg/kg/injection, schedule: Q01DX001 (ip), vehicle: Klucel (hydroxypropylcellulose) (HPC)) 97 % of control.

For `O=C(O)c1cnc2cc3c(cc2c1Nc1ccccc1)OCO3`, the T/C is 99 % of control (dose: 60.0 mg/kg/injection, schedule: Q01DX005 (ip), vehicle: Klucel (hydroxypropylcellulose) (HPC)); 102 % of control (dose: 120.0 mg/kg/injection, schedule: Q01DX005 (ip), vehicle: Klucel (hydroxypropylcellulose) (HPC)); 90 % of control (dose: 240.0 mg/kg/injection, schedule: Q01DX005 (ip), vehicle: Klucel (hydroxypropylcellulose) (HPC)).

With `COc1cc(N(CC(C)Br)CC(C)Br)ccc1N=Nc1ccccc1C(=O)O` (stereo not drawn), the T/C (dose: 1.56 mg/kg/injection, schedule: Q01DX009 (ip), vehicle: saline with Tween-80) was 164 % of control; the T/C (dose: 3.12 mg/kg/injection, schedule: Q01DX009 (ip), vehicle: saline with Tween-80) was 160 % of control and 169 % of control.

Turning to `C=C(CN(C)C)C(=O)c1ccc(OC)cc1`, the T/C is 100 % of control (dose: 0.93 mg/kg/injection, schedule: Q01DX005 (ip), vehicle: saline); 113 % of control (dose: 1.87 mg/kg/injection, schedule: Q01DX005 (ip), vehicle: saline); 99 % of control (dose: 3.75 mg/kg/injection, schedule: Q01DX005 (ip), vehicle: saline).

As to `Cc1ccc(/[N+]([O-])=C/c2ccccc2)cc1`, the T/C is, setting by setting: under setting [6], 92 % of control; under setting [7], 94 % of control; under setting [8], 89 % of control.

Consider `CC1=CC2OC3C(OC(=O)CCCCl)C(OC(=O)CCCCl)C(C)(C2(CO)CC1)C31CO1` (stereo not drawn), for which the T/C is 152 % of control (dose: 4.0 mg/kg/injection, schedule: Q01DX009 (ip), vehicle: saline with Tween-80) and 172 % of control (dose: 8.0 mg/kg/injection, schedule: Q01DX009 (ip), vehicle: saline with Tween-80).

`O=C(C[n+]1ccccc1)c1ccccc1`: the T/C is 105 % of control (dose: 12.5 mg/kg/injection, schedule: Q01DX009 (ip), vehicle: saline); 104 % of control under setting [9]; 96 % of control under setting [10].

On to `OC1c2ccccc2-c2cccc(N=Cc3ccc4c(c3)OCO4)c21` (stereo not drawn), for which the T/C by setting is: under setting [6], 108 % of control; under setting [7], 97 % of control; under setting [8], 95 % of control.

For `CC(=O)N1C2=CCCC3CCCCC23c2ccccc21` (stereo not drawn), the T/C was 98 % of control under setting [11]; 93 % of control under setting [12]; 89 % of control under setting [13]; 95 % of control (dose: 400.0 mg/kg/injection, schedule: Q01DX009 (ip), vehicle: saline with Tween-80).

As to `CCOC1=CS(C)(=O)=NC(SC)=C1C#N` (stereo not drawn), the T/C by setting is: (dose: 50.0 mg/kg/injection, schedule: Q01DX001 (ip), vehicle: Klucel (hydroxypropylcellulose) (HPC)) 99 % of control; under setting [4], 105 % of control; under setting [5], 99 % of control.

As to `Oc1ccc(O)c(/C=N/N=C/c2cc(O)ccc2O)c1`, the T/C is, setting by setting: (dose: 50.0 mg/kg/injection, schedule: Q01DX005 (ip), vehicle: Klucel (hydroxypropylcellulose) (HPC)) 97 % of control; (dose: 100.0 mg/kg/injection, schedule: Q01DX005 (ip), vehicle: Klucel (hydroxypropylcellulose) (HPC)) 97 % of control; (dose: 200.0 mg/kg/injection, schedule: Q01DX005 (ip), vehicle: Klucel (hydroxypropylcellulose) (HPC)) 91 % of control.

For the compound `CCCCC1(CN(C)C)C(=O)N(C)C(=O)N(C2CCCCC2)C1=O` (stereo not drawn), the T/C runs as follows: under setting [11], 100 % of control; under setting [12], 102 % of control; under setting [13], 99 % of control.

Take `O=C(O)C1CC[N-]CC1.O=C(O)C1CC[N-]CC1.O=C(O)C1CC[N-]CC1.O=C(O)C1CC[N-]CC1.[Cl][Rh][Cl]`: the T/C (dose: 67.0 mg/kg/injection, schedule: Q01DX009 (ip), vehicle: saline with Tween-80) is 100 % of control; the T/C under setting [12] is 109 % of control; the T/C (dose: 150.0 mg/kg/injection, schedule: Q01DX009 (ip), vehicle: saline with Tween-80) is 113 % of control.

As for `Brc1c(Br)c(Br)c2n[nH]nc2c1Br`, the T/C was 103 % of control under setting [14], 106 % of control under setting [11], 103 % of control under setting [12] and 115 % of control under setting [13].

Consider `CCN(CC)Cc1cc(N=Nc2ccc(-c3ccc(N)c(OC)c3)cc2OC)c2ccccc2c1O`, for which the T/C reads like this: under setting [1], 92 % of control; under setting [2], 99 % of control; under setting [3], 93 % of control.

For the compound `c1ccc(C2=NCCCO2)cc1`, the T/C by setting is: under setting [14], 104 % of control; (dose: 25.0 mg/kg/injection, schedule: Q04DX003 (ip), vehicle: saline with Tween-80) 100 % of control; under setting [11], 95 % of control; under setting [15], 100 % of control; under setting [12], 108 % of control; under setting [16], 100 % of control.

`CC(C=O)CC1CCCCC1` (stereo not drawn): the T/C reads like this: under setting [15], 100 % of control; under setting [16], 100 % of control; (dose: 200.0 mg/kg/injection, schedule: Q04DX003 (ip), vehicle: saline with Tween-80) 109 % of control.

On to `CC1=C/C(=C(\c2cc(C)c(O)c(C(=O)O)c2)c2c(Cl)ccc(S(=O)(=O)O)c2Cl)C=C(C(=O)O)C1=O`, for which the T/C was 102 % of control under setting [9]; 102 % of control and 91 % of control under setting [10]; 108 % of control and 95 % of control (dose: 100.0 mg/kg/injection, schedule: Q01DX009 (ip), vehicle: saline); 98 % of control and 106 % of control (dose: 200.0 mg/kg/injection, schedule: Q01DX009 (ip), vehicle: saline).

Consider `COc1c(CNC(=O)CCl)cc2[nH]c(C)cc2c1CNC(=O)CCl`, for which the T/C under setting [2] is 153 % of control and the T/C under setting [3] is 150 % of control.
